Results on three compounds are retold here after PMC6357863, “Dithiocarbamate-inspired side chain stapling chemistry for peptide drug design” (Chemical Science, 2018).

Data set [1] is described as follows: Circular dichroism spectroscopy, helical content. Particulars: CD, PB pH 7.2, 10-50 μM peptide, 20 °C. The class given is physicochemical. As to the method:
Circular Dichroism (CD) Spectroscopy.
(§1) from 10-50 μM. […] The spectra were […]

The subject of another data set is HCT116 p53-/- cells. Put plainly: Cell viability assay (CCK8), HCT116 p53-/-. The class given is cell-based, human. Conditions: concentrations of up to 50 μM, 8 h serum-free then 64 h with serum. The method, then: (§2) and three independent experiments were performed. […]
(§3) As an additional positive control, we
(§4) Tecan Infinite M1000 plate reader.
(§5) additional incubation for 64 hours. […]

For the next data set, the system named is HCT116 p53+/+ cells. In words: Cell viability assay (CCK8), HCT116 p53+/+. The class given is cell-based, human. Conditions: concentrations of up to 50 μM, 8 h serum-free then 64 h with serum. The method, then:
as §2, §4, §5

A short description of another data set: circular dichroism. Conditions: phosphate buffer (PB); pH 7.2; 20 °C; 10-50 uM. On the technique in general: Circular dichroism is widely used to follow secondary structure.
The test system of another data set is HCT116 cells. In words: Cellular uptake by confocal microscopy. Particulars: 20 μM peptide N-terminally conjugated to FITC via aminocaproic acid, HCT116 p53+/+ cells, 4 h, fixed, DAPI. The class given is cell-based, human. As to the method: Although cationicity is not a universal molecular signature of cell-penetrating peptides, it plays a critical role in the ability of stapled peptides to traverse the cell membrane to exert biological activity.[10],[22],[28]
Cellular uptake of DTCPMI. A fluorescent FITC moiety was appended via an aminocaproic acid to the N- […]
and allowed to grow overnight. Cells were then incubated with 20 µM FITC-DTCPMI for 4 h. Cells were washed with Dulbecco's phosphate buffered saline, fixed with 4% (wt/vol) paraformaldehyde, finally incubated by DAPI to stain the cell nucleus. Imaged using an LSM 510 Zeiss Axiovert 200M (v4.0) confocal microscope. Images were analyzed using an LSM image browser. […]
μM) in serum-free media for 8 hours. The cells were lysed (20 mM Tris-HCl pH 8.0, 0.8 % SDS, 1 mM PMSF, 1 U mL-1 benzonase nuclease) and the crude lysates were clarified by brief centrifugation and total protein concentration was determined by using the Pierce BCA protein assay. Aliquots containing 5 μg of total protein were run on 4-12% Bis-Tris polyacrylamide gels (Invitrogen). Proteins were detected by chemiluminescence reagent (Perkin Elmer) using antibodies specific for p53 (Santa Cruz Biotechnology), MDM2 (Santa Cruz Biotechnology), p21 (Merck Millipore), and β-actin (Sigma-Aldrich). […]

For data set [2], the target named is T1, synthetic 24–108MDMX (p53-binding domain) (Homo sapiens, UniProt O15151).
T1 construct: made in house; host or cells: total chemical synthesis (native chemical ligation of 24-75 thioester with 76-108); no expression host
T1 sequence (O15151 24-108): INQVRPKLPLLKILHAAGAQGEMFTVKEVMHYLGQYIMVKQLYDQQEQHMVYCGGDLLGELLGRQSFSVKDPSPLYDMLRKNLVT
In words: SPR-based competition binding assay on 15–29p53-immobilized CM5 chip, MDMX. Particulars: 25 °C, MDMX at 100 nM, 10 mM HEPES, 150 mM NaCl, 0.005% P20, pH 7.4, free MDMX quantified on 15–29p53 chip, two replicates, three independent experiments. The method, then:
and three independent experiments were performed.
Fluorescence polarization (FP).
as §3
Tecan Infinite M1000 plate reader. […]
additional incubation for 64 hours.
Circular Dichroism (CD) Spectroscopy. […]
as §1
of each peptide was calculated as reported previously. 12
Stability in GSH. […] RP-

`CC(=O)N[C@H](C(=O)N[C@@H](CO)C(=O)N[C@@H](Cc1ccccc1)C(=O)N[C@@H](CCCCN)C(=O)N[C@@H](CCC(N)=O)C(=O)N[C@@H](Cc1ccc(O)cc1)C(=O)N[C@@H](Cc1c[nH]c2ccccc12)C(=O)N[C@@H](CS)C(=O)N[C@@H](CC(C)C)C(=O)N[C@@H](CC(C)C)C(=O)N[C@@H](CO)C(=O)N[C@@H](CCCNC(=N)N)C(N)=O)[C@@H](C)O` [^DTCPMI Ctrl.]: the “α-Helix (%)” value in data set [1] is listed as 16.6%. Also, the “anti-proliferative activity against HCT116 p53-/-” value in the data set on HCT116 p53-/- cells was “no anti-proliferative activity”. Moreover, the “anti-proliferative activity against HCT116 p53+/+” value in the data set with HCT116 p53+/+ cells is reported as “no anti-proliferative activity”. For the same compound, in the data set “circular dichroism”, the helicity turned out to be 16.6%.
For the compound `CC(=O)N[C@H](C(=O)N[C@@H](CO)C(=O)N[C@@H](Cc1ccccc1)C(=O)N[C@H]1CCCCNC(=S)SC[C@@H](C(=O)N[C@@H](CC(C)C)C(=O)N[C@@H](CC(C)C)C(=O)N[C@@H](CO)C(=O)N[C@@H](CCCNC(=N)N)C(N)=O)NC(=O)[C@H](Cc2c[nH]c3ccccc23)NC(=O)[C@H](Cc2ccc(O)cc2)NC(=O)[C@H](CCC(N)=O)NC1=O)[C@@H](C)O` [^DTCPMI], in “circular dichroism”, the helicity was determined as 62.2%. In addition, the “intracellular localization (confocal microscopy)” value in the data set on HCT116 cells was “diffused intracellular localization”.
By Kd is commonly meant the concentration at which binding is half-saturated. `CC(=O)N[C@H]1CCCCNC(=S)SC[C@@H](C(=O)N[C@@H](Cc2ccc(O)cc2)C(=O)N[C@@H](Cc2c[nH]c3ccccc23)C(=O)N[C@@H](CC(N)=O)C(=O)N[C@@H](CC(C)C)C(=O)N[C@@H](CC(C)C)C(=O)N[C@@H](CO)C(=O)N2CCC[C@H]2C(N)=O)NC(=O)[C@H](C)NC(=O)[C@H](Cc2ccccc2)NC(=O)[C@H](CO)NC1=O` [PMI(1,5)-a]: the Kd in data set [2] was more than 500 nM. In the data set “circular dichroism”, this compound came in with a helicity of 6.5%.
